Series [1] concerns the target T1, delta opioid receptor (DOR) (Mus musculus, UniProt P32300). As to the kind of experiment: DOR competitive radioligand binding. Set-up: species or system mice.
Series [2] addresses T2, kappa opioid receptor (KOR) (Mus musculus, UniProt P33534). As to the kind of experiment: biochemical. The class given is binding, mice.
The target in series [3] is T3, mu opioid receptor (MOR) (Mus musculus, UniProt P42866). As to the kind of experiment: MOR competitive radioligand binding. The arrangement: species or system mice.
The target in series [4] is T2, kappa opioid receptor (KOR). As to the kind of experiment: KOR [35S]-GTPγS binding assay. A general note: GTPγS resists hydrolysis and so accumulates on activated G proteins.
In the next series the test system is morphine dependent mice. As to the kind of experiment: Opioid withdrawal assay in morphine-pelleted mice. In kind it is in vivo. The note with it: for Precipitated withdrawal symptoms, overall comparison: s.c.
The next series relates to antinociception. As to the kind of experiment: Warm-water tail flick assay, acute agonist effect. The conditions noted are these: up to 30 mg/kg dose; s.c. On the technique in general: Hot-plate and tail-flick tests time the reaction to a heat stimulus.
The target of series [5] is T1, delta opioid receptor (DOR). As to the kind of experiment: DOR [35S]-GTPγS binding assay.
Series [6] has as its target T3, mu opioid receptor (MOR). As to the kind of experiment: MOR [35S]-GTPγS functional assay. In kind it is biochemical, mice.
The mark [7] stands for this setting: increasing dose up to 30 mg/kg s.c.
Setting [8] is: 1 mg/kg s.c., morphine-pelleted mice, counted over 20 minutes.

Bounds are passed on as bounds.

T3 sequence (P42866 whole entry): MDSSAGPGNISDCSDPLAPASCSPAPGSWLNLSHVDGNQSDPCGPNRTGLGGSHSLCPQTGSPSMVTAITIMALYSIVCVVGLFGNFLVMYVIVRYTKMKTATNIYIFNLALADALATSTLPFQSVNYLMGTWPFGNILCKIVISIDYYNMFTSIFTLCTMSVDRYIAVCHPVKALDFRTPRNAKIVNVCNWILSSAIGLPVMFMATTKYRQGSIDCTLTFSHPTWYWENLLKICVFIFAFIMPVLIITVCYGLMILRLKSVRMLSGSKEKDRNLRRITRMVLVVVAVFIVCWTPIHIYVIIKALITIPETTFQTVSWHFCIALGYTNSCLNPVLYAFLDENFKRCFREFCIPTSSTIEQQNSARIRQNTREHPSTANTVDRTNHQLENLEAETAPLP
T1 sequence (P32300 whole entry): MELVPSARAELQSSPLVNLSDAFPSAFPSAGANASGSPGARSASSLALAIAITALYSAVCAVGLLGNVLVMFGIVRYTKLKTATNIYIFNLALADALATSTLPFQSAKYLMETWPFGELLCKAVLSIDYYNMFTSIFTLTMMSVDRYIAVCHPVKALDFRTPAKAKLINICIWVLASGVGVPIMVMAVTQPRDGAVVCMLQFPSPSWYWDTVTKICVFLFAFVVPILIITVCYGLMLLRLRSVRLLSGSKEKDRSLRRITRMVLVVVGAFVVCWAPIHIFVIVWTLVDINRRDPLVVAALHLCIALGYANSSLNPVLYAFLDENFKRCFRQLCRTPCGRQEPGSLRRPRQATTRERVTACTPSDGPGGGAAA
T2 sequence (P33534 whole entry): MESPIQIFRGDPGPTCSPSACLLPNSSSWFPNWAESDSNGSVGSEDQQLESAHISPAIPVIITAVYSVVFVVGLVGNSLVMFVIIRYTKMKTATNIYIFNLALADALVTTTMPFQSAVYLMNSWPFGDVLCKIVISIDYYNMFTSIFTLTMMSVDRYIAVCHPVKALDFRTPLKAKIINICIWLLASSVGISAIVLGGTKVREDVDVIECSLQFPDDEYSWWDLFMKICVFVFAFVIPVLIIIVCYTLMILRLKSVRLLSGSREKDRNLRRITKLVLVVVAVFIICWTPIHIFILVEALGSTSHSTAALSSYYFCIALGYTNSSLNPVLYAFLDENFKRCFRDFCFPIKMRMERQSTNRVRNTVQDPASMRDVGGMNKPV

As usually defined, the Ki is a dissociation constant, usually derived from enzyme kinetics or from competition with a known ligand. Low values mean higher affinity, high ones lower affinity. In the case of `O=C(O[C@@]12CCC(=O)[C@@H]3Oc4c(O)ccc5c4[C@@]31CCN(CC1CC1)[C@@H]2C5)c1ccccn1` [Compound 2, 17-cyclopropylmethyl-4,5α-epoxy-3-hydroxy-14β-O-(pyridyl-2’-carboxy)morphinan-6-one], the values for the Ki (in series [1]; in series [2]; at mu opioid receptor (MOR) [3]) were 117 ± 18 nM, 25.5 ± 6.5 nM and 0.14 ± 0.03 nM, respectively. The “Selectivity to the MOR over the KOR and the DOR” value (“Selectivity to the MOR” for short) on mu opioid receptor (MOR) [3] is reported as “above 30 fold”.

For the compound `O=C(O[C@@]12CCC(=O)[C@@H]3Oc4c(O)ccc5c4[C@@]31CCN(CC1CC1)[C@@H]2C5)c1cccnc1` [Compound 3, 17-cyclopropylmethyl-4,5α-epoxy-3-hydroxy-14β-O-(pyridyl-3’- carboxy)morphinan-6-one], the Ki amounted to 170 ± 12.6 nM in series [1], 47.8 ± 8.5 nM in series [2] and 1.59 ± 0.61 nM at mu opioid receptor (MOR) [3]. On mu opioid receptor (MOR) [3], the “Selectivity to the MOR” value is “above 30 fold”.

For the compound `O=C(O[C@@]12CCC(=O)[C@@H]3Oc4c(O)ccc5c4[C@@]31CCN(CC1CC1)[C@@H]2C5)c1ccncc1` [Compound 4, 17-cyclopropylmethyl-4,5α-epoxy-3-hydroxy-14β-O-(pyridyl-4’-carboxy)morphinan-6-one], the figures for the Ki (in series [1]; in series [2]; on mu opioid receptor (MOR) [3]) were 405 ± 235 nM, 49.2 ± 20.4 nM and 5.58 ± 1.34 nM, respectively.

Consider `O=C(O[C@@]12CCC(=O)[C@@H]3Oc4c(O)ccc5c4[C@@]31CCN(CC1CC1)[C@@H]2C5)c1ccccc1` [Compound 5, 17-cyclopropylmethyl-4,5α-epoxy-3-hydroxy-14β-O-(benzoyloxy)morphinan-6-one], for which the Ki in series [1] was > 10000 nM; in series [2] it was 586 ± 32.4 nM; on mu opioid receptor (MOR) [3], 123 ± 38.2 nM. In series [2] (Table 1, Ki ratio), the “Selectivity δ/κ” value was >17. Further, the “Selectivity δ/μ” value on mu opioid receptor (MOR) [3] (Table 1, Ki ratio) was >81.

As to `O=C(O[C@@]12CCC(=O)[C@@H]3Oc4c(O)ccc5c4[C@@]31CCN(CC1CC1)[C@@H]2C5)c1cc2ccccc2cn1` [Compound 6, 17-cyclopropylmethyl-4,5α-epoxy-3-hydroxy-14β-O-(isoquinolyl-3’-carboxy)morphinan-6-one], the values for the Ki (in series [1]; in series [2]; at mu opioid receptor (MOR) [3]) were > 10000 nM, > 10000 nM and 68.4 ± 6 nM, respectively. For the same compound, the “Selectivity to the MOR” value on mu opioid receptor (MOR) [3] is recorded as “above 30 fold”. At mu opioid receptor (MOR) [3] (Table 1, Ki ratio), the “Selectivity δ/μ” value is reported as >146. Moreover, the “Selectivity κ/μ” value on mu opioid receptor (MOR) [3] (Table 1, Ki ratio) is given as >146.

Consider `O=C(O[C@@]12CCC(=O)[C@@H]3Oc4c(O)ccc5c4[C@@]31CCN(CC1CC1)[C@@H]2C5)c1ccc2ccccc2n1` [Compound 7, 17-cyclopropylmethyl-4,5α-epoxy-3-hydroxy-14β-O-(quinolyl-2’-carboxy)morphinan-6-one], for which the Ki in series [1] was found to be 22.8 ± 19.5 nM; in series [2], 67.2 ± 36.7 nM; at mu opioid receptor (MOR) [3], 1.44 ± 0.32 nM.

`O=C(O[C@@]12CCC(=O)[C@@H]3Oc4c(O)ccc5c4[C@@]31CCN(CC1CC1)[C@@H]2C5)c1cnc2ccccc2c1` [Compound 8, 17-cyclopropylmethyl-4,5α-epoxy-3-hydroxy-14β-O-(quinolyl-3’-carboxy)morphinan-6-one]: the Ki in series [1] was determined as 818 ± 507 nM; in series [2] it was 148 ± 55.5 nM; on mu opioid receptor (MOR) [3], 2.69 ± 0.72 nM. The “Selectivity to the MOR” value on mu opioid receptor (MOR) [3] is given as “above 30 fold”.

Take `O=C(O[C@@]12CCC(=O)[C@@H]3Oc4c(O)ccc5c4[C@@]31CCN(CC1CC1)[C@@H]2C5)c1ccc2ccccc2c1` [Compound 9, 17-cyclopropylmethyl-4,5α-epoxy-3-hydroxy-14β-O-(2-naphthoyloxy)morphinan-6-one]: the Ki in series [1] was found to be 907 ± 193 nM; in series [2] it was 46.6 ± 13.5 nM; at mu opioid receptor (MOR) [3], 225 ± 46.6 nM.

Broadly, the EC50 is the midpoint of the concentration-response curve. Low values mean a more potent agent, high ones a less potent agent. Regarding `O=C(N[C@@]12CCC(=O)[C@@H]3Oc4c(O)ccc5c4[C@@]31CCN(CC1CC1)[C@@H]2C5)c1ccccn1` [Compound 10, 17-cyclopropylmethyl-4,5α-epoxy-3-hydroxy-14β-N-[(2’-pyridyl)carboxamido]morphinan-6-one], the EC50 in series [4] turned out to be 1.74 ± 0.5 nM; in series [5] it was 19.7 ± 7.4 nM. Besides, the “Wet dog shakes at 3 mg/kg” value in the series on morphine dependent mice (3 mg/kg s.c.) is recorded as “minimal number of wet dog shakes”. The “Wet dog shakes at 10 mg/kg” value in the series on morphine dependent mice (10 mg/kg s.c., same level at 30 mg/kg) is given as “dramatic increase”. Further, in the series with morphine dependent mice (10 and 30 mg/kg s.c., compared with 1 mg/kg naloxone), the “Wet dog shakes at high doses” value was “still lower than that of 1 mg/kg naloxone”. For the same compound, the “Escape jumps, effect of dose” value in the series on morphine dependent mice (setting [7]) is reported as “clear decrease of escape jumps as its dose increased (not significantly though)”. In addition, in the series on morphine dependent mice (morphine-pelleted mice), the “Precipitated withdrawal symptoms, overall comparison” value is on record as “less severe withdrawal symptoms than naloxone at high doses”. Further, the Ki is 94.5 ± 6.5 nM in series [1], 0.36 ± 0.01 nM in series [2] and 1.51 ± 0.34 nM on mu opioid receptor (MOR) [3]. Moreover, the “Agonist effect in tail flick assay” value in the series on antinociception was “None of the compounds produced any significant agonist effect”.

Regarding `O=C(N[C@@]12CCC(=O)[C@@H]3Oc4c(O)ccc5c4[C@@]31CCN(CC1CC1)[C@@H]2C5)c1cccnc1` [Compound 11, 17-cyclopropylmethyl-4,5α-epoxy-3-hydroxy-14β-N-[(3’-pyridyl)carboxamido]morphinan-6-one], the results for the 50% effective concentration (EC50) in series [4] and in series [5] were 0.56 ± 0.06 nM and 3.2 ± 2 nM, respectively. For the same compound, the “Wet dog shakes at 30 mg/kg” value with morphine dependent mice (30 mg/kg s.c., compared with 1 mg/kg naloxone and naltrexone) was “resembled the effect of 1 mg/kg naloxone and naltrexone”. Besides, the “Escape jumps, effect of dose” value in the series on morphine dependent mice (setting [7]) is “dose-response increasing effect”. Further, the “Wet dog shakes, effect of dose” value with morphine dependent mice (setting [7]) was “dose-response increasing effect”. For the same compound, the “Precipitated withdrawal symptoms, overall comparison” value in the series with morphine dependent mice (morphine-pelleted mice) is on record as “behaved similarly to naltrexone”. Besides, the inhibitory constant (Ki) in series [1] was determined as 39.9 ± 0.5 nM; in series [2] it was 0.16 ± 0.01 nM; on mu opioid receptor (MOR) [3], 0.75 ± 0.28 nM. Besides, the “Agonist effect in tail flick assay” value in the series on antinociception is “None of the compounds produced any significant agonist effect”.

`O=C(N[C@@]12CCC(=O)[C@@H]3Oc4c(O)ccc5c4[C@@]31CCN(CC1CC1)[C@@H]2C5)c1ccncc1` [Compound 12, 17-cyclopropylmethyl-4,5α-epoxy-3-hydroxy-14β-N-[(4’-pyridyl)carboxamido]morphinan-6-one]: the figures for the Ki (in series [1]; in series [2]; on mu opioid receptor (MOR) [3]) were 10.9 ± 1.3 nM, 0.33 ± 0.01 nM and 0.82 ± 0.33 nM, respectively.

In the case of `O=C(N[C@@]12CCC(=O)[C@@H]3Oc4c(O)ccc5c4[C@@]31CCN(CC1CC1)[C@@H]2C5)c1ccccc1` [Compound 13, 17-cyclopropylmethyl-4,5α-epoxy-3-hydroxy-14β-N-(benzamido)morphinan-6-one], the inhibitory constant (Ki) in series [1] was determined as 57.3 ± 4.3 nM; in series [2], 0.12 ± 0.001 nM; at mu opioid receptor (MOR) [3] it was 4.34 ± 0.7 nM.

Take `O=C(N[C@@]12CCC(=O)[C@@H]3Oc4c(O)ccc5c4[C@@]31CCN(CC1CC1)[C@@H]2C5)c1ccc2ccccc2n1` [Compound 15, 17-cyclopropylmethyl-4,5α-epoxy-3-hydroxy-14β-N-[(2’-quinolyl)carboxamido]morphinan-6-one]: the Ki stood at 15.1 ± 0.6 nM in series [1], 0.26 ± 0.01 nM in series [2] and 9.09 ± 4.94 nM at mu opioid receptor (MOR) [3].

For `O=C(N[C@@]12CCC(=O)[C@@H]3Oc4c(O)ccc5c4[C@@]31CCN(CC1CC1)[C@@H]2C5)c1cnc2ccccc2c1` [Compound 16, 17-cyclopropylmethyl-4,5α-epoxy-3-hydroxy-14β-N-[(3’-quinolyl)carboxamido]morphinan-6-one], the figures for the Ki (in series [1]; in series [2]; at mu opioid receptor (MOR) [3]) were 1.48 ± 0.05 nM, 0.13 ± 0.02 nM and 1.13 ± 0.25 nM, respectively.

As to `O=C(N[C@@]12CCC(=O)[C@@H]3Oc4c(O)ccc5c4[C@@]31CCN(CC1CC1)[C@@H]2C5)c1ccc2ccccc2c1` [Compound 17], the values for the Ki (in series [1]; in series [2]; at mu opioid receptor (MOR) [3]) were 10.5 ± 1.4 nM, 0.33 ± 0.02 nM and 6.22 ± 4.01 nM, respectively.

Take `O=C(Cc1ccccn1)N[C@@]12CCC(=O)[C@@H]3Oc4c(O)ccc5c4[C@@]31CCN(CC1CC1)[C@@H]2C5` [Compound 18, 17-cyclopropylmethyl-4,5α-epoxy-3-hydroxy-14β-N-[2’-(pyridin-2”-yl)acetamido]morphinan-6-one]: the Ki in series [1] came out at 3.92 ± 0.12 nM; in series [2], 0.19 ± 0.03 nM; on mu opioid receptor (MOR) [3] it was 0.29 ± 0.04 nM. For the same compound, the “MOR agonism / efficacy in [35S]-GTPγS binding assay (in words)” value (shortened to “MOR agonism / efficacy”) at mu opioid receptor (MOR) [6] is recorded as “MOR partial agonist with relatively high efficacy”.

`O=C(CCc1ccccn1)N[C@@]12CCC(=O)[C@@H]3Oc4c(O)ccc5c4[C@@]31CCN(CC1CC1)[C@@H]2C5` [Compound 19, 17-cyclopropylmethyl-4,5α-epoxy-3-hydroxy-14β-N-[3’-(pyridin-2”-yl)propanamido]morphinan-6-one]: the inhibition constant (Ki) is 9.1 ± 0.5 nM in series [1], 0.17 ± 0.02 nM in series [2] and 0.32 ± 0.04 nM at mu opioid receptor (MOR) [3]. Further, the “MOR agonism / efficacy” value on mu opioid receptor (MOR) [6] is “low efficacy MOR partial agonists”.

For `O=C(CNC(=O)c1ccccn1)N[C@@]12CCC(=O)[C@@H]3Oc4c(O)ccc5c4[C@@]31CCN(CC1CC1)[C@@H]2C5` [Compound 20, 17-cyclopropylmethyl-4,5α-epoxy-3-hydroxy-14β-N-{2’-[(pyridin-2”-yl)carboxamido]acetamido}morphinan-6-one], the inhibition constant (Ki) was 0.37 ± 0.04 nM in series [1], 0.14 ± 0.01 nM in series [2] and 0.3 ± 0.01 nM on mu opioid receptor (MOR) [3]. The “MOR agonism / efficacy” value at mu opioid receptor (MOR) [6] is given as “low efficacy MOR partial agonists”.

On to `O=C1CC[C@@]2(O)[C@H]3Cc4ccc(O)c5c4[C@@]2(CCN3CC2CC2)[C@H]1O5` [NTX, naltrexone, reference compound], for which, in the series with morphine dependent mice (setting [8]), the Escape jumps result was “over twenty times” and the Wet dog shakes result is recorded as “above seven times”.

Source of the values: paper PMC4373589 (Journal of medicinal chemistry, 2013).
